How the values were obtained:
ABUTH (Velvetleaf) = experiment: Postemergence herbicidal evaluation; assay type: in vivo, Abutilon theophrasti; conditions: postemergence
Method in brief: (§1)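 Each compound, dispersed in an acetone/water mix (50/50) carrying 0.5% TWEEN 20, is nozzle-sprayed at 40 psi on approximately two-week-old seedlings at about 0.0156–0.500 kg/ha. Plants are assessed 4–5 weeks afterward on a 0–9 scale relative to control; duplicate tests are averaged.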

[1] = tested on: CHEAL (Lambsquarters, Common); experiment: Postemergence herbicidal evaluation; assay type: in vivo, Chenopodium album; conditions: postemergence
Method in brief: as §1

SETVI (Foxtail, Green) [2] = experiment: Postemergence herbicidal evaluation; assay type: in vivo, Setaria viridis; conditions: postemergence
Method in brief: as §1

[3] = tested on: GLXMAW (Soybean, Williams); experiment: Postemergence herbicidal evaluation; assay type: in vivo, Glycine max, (L.) Merr. cv Williams; conditions: postemergence
Method in brief: as §1

ORYSAT (Rice, Tebonnet) = experiment: Postemergence herbicidal evaluation; assay type: in vivo, Oryza sativa, (L.) Tebonnet; conditions: postemergence
Method in brief: as §1

[4] = tested on: TRZAWR (Wheat, Winter, cv Riband); experiment: Postemergence herbicidal evaluation; assay type: in vivo, Triticum aestivum; conditions: postemergence
Method in brief: as §1

ZEAMX (Corn, Field) = experiment: Postemergence herbicidal evaluation; assay type: in vivo, Zea mays; conditions: postemergence
Method in brief: as §1

AMBEL (Ragweed, Common) = experiment: Preemergence herbicidal evaluation; assay type: in vivo, Ambrosia artemisifolia; conditions: rated 4-5 weeks after treatment; for AMBEL rating: preemergence, 0-9 scale
Method in brief: (§2)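 Scores (0–9) reflect visual comparison with control plants for stand, vigor, malformation, size and chlorosis. Compound was applied to the soil after sowing, before emergence, as an aqueous acetone spray (about 0.0156–0.500 kg/ha), and cups were kept in a greenhouse for 4–5 weeks.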

GALAP (Galium) = experiment: Preemergence herbicidal evaluation; assay type: in vivo, Galium aparine; conditions: rated 4-5 weeks after treatment; for GALAP rating: preemergence, 0-9 scale
Method in brief: as §2

SETVI (Foxtail, Green) [5] = experiment: Preemergence herbicidal evaluation; assay type: in vivo, Setaria viridis; conditions: rated 4-5 weeks after treatment; for SETVI rating: preemergence, 0-9 scale
Method in brief: as §2

CYPIR (Rice Flatsedge) = experiment: Preemergence weed control under flooded paddy conditions; assay type: in vivo, Cyperus iria; conditions: rated 3-4 weeks after treatment
Method in brief: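 Silt loam, seeds in top 0.5 cm; flood held 1.5-3 cm; test cpd as acetone/water 50/50 into flood water, ~0.0313-0.500 kg/ha a.i.; greenhouse 3-4 wk; visual 0-9 score vs control.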

[6] = tested on: ECHORC (Watergrass (Calif.)); experiment: Postemergence weed control under flooded paddy conditions; assay type: in vivo, Echinochloa oryzoides; conditions: postemergence weeds
Method in brief: (§3)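 With weeds 3 to 5 cm tall and rice at the 1.5 to 2.5 leaf stage, containers were flooded and water held 1.5 to 3 cm above soil. Compounds in 50/50 v/v aqueous/acetone went into the flood water at about 0.0313 to 0.500 kg/ha a.i. Effects were visually rated 0–9 against controls after three to four weeks in the greenhouse.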

CYPSE (Flatsedge) = experiment: as above; assay type: in vivo, Cyperus serotinus; conditions: postemergence weeds
Method in brief: as §3

[7] = tested on: SAGPY (Arrowhead (Pygmaea)); experiment: as above; assay type: in vivo, Sagittaria pygmaea; conditions: postemergence weeds
Method in brief: as §3

[8] = Rate 0.0313 kg/ha, rated 3 to 4 weeks after treatment
[9] = Rate 0.0625 kg/ha, rated 3 to 4 weeks after treatment
[10] = Rate 0.1250 kg/ha, rated 3 to 4 weeks after treatment
[11] = Rate 0.2500 kg/ha, rated 3 to 4 weeks after treatment
[12] = rate 0.1160 kg/ha, 3-4 weeks after treatment
[13] = rate 0.2310 kg/ha, 3-4 weeks after treatment
[14] = rate 0.4630 kg/ha, 3-4 weeks after treatment

CC(C)OC(=O)CC1SC(=Nc2cc(-n3c(=O)cc(C(F)(F)F)n(C)c3=O)c(F)cc2Cl)N(C)C1=O (centres unmarked) [Compound 89, Isopropyl 2-{{2-chloro-5-[3,6-dihydro-3-methyl-2,6-dioxo-4-(trifluoromethyl)-1(2H)-pyrimidinyl]-4-fluorophenyl}imino}-3-methyl-4-oxo-5-thiazolidineacetate]
ABUTH herbicidal rating (ABUTH (Velvetleaf); rate 0.0158 kg/ha): 9.0
ABUTH herbicidal rating (ABUTH (Velvetleaf); rate 0.0313 kg/ha): 9.0
ABUTH herbicidal rating (ABUTH (Velvetleaf); rate 0.0625 kg/ha): 9.0
ABUTH herbicidal rating (ABUTH (Velvetleaf); rate 0.1250 kg/ha): 9.0
CHEAL herbicidal rating ([1]; rate 0.0158 kg/ha): 4.0
CHEAL herbicidal rating ([1]; rate 0.0313 kg/ha): 9.0
CHEAL herbicidal rating ([1]; rate 0.0625 kg/ha): 9.0
CHEAL herbicidal rating ([1]; rate 0.1250 kg/ha): 9.0
SETVI herbicidal rating (SETVI (Foxtail, Green) [2]; rate 0.0158 kg/ha): 7.0
SETVI herbicidal rating (SETVI (Foxtail, Green) [2]; rate 0.0313 kg/ha): 9.0
SETVI herbicidal rating (SETVI (Foxtail, Green) [2]; rate 0.0625 kg/ha): 9.0
SETVI herbicidal rating (SETVI (Foxtail, Green) [2]; rate 0.1250 kg/ha): 9.0
GLXMAW herbicidal rating ([3]; rate 0.0158 kg/ha): 7.5
GLXMAW herbicidal rating ([3]; rate 0.0313 kg/ha): 9.0
GLXMAW herbicidal rating ([3]; rate 0.0625 kg/ha): 9.0
GLXMAW herbicidal rating ([3]; rate 0.1250 kg/ha): 9.0
ORYSAT herbicidal rating (ORYSAT (Rice, Tebonnet); rate 0.0158 kg/ha): 1.0
ORYSAT herbicidal rating (ORYSAT (Rice, Tebonnet); rate 0.0313 kg/ha): 4.0
ORYSAT herbicidal rating (ORYSAT (Rice, Tebonnet); rate 0.0625 kg/ha): 6.5
ORYSAT herbicidal rating (ORYSAT (Rice, Tebonnet); rate 0.1250 kg/ha): 8.0
TRZAWR herbicidal rating ([4]; rate 0.0158 kg/ha): 5.5
TRZAWR herbicidal rating ([4]; rate 0.0313 kg/ha): 7.0
TRZAWR herbicidal rating ([4]; rate 0.0625 kg/ha): 7.0
TRZAWR herbicidal rating ([4]; rate 0.1250 kg/ha): 7.0
ZEAMX herbicidal rating (ZEAMX (Corn, Field); rate 0.0158 kg/ha): 7.5
ZEAMX herbicidal rating (ZEAMX (Corn, Field); rate 0.0313 kg/ha): 7.5
ZEAMX herbicidal rating (ZEAMX (Corn, Field); rate 0.0625 kg/ha): 8.5
ZEAMX herbicidal rating (ZEAMX (Corn, Field); rate 0.1250 kg/ha): 9.0
AMBEL rating (AMBEL (Ragweed, Common); 0.0156 kg/ha): 0.0
AMBEL rating (AMBEL (Ragweed, Common); 0.0313 kg/ha): 0.5
AMBEL rating (AMBEL (Ragweed, Common); 0.0625 kg/ha): 2.0
AMBEL rating (AMBEL (Ragweed, Common); 0.1250 kg/ha): 6.5
AMBEL rating (AMBEL (Ragweed, Common); 0.2500 kg/ha): 6.5
AMBEL rating (AMBEL (Ragweed, Common); 0.5000 kg/ha): 9.0
GALAP rating (GALAP (Galium); 0.0156 kg/ha): 0.0
GALAP rating (GALAP (Galium); 0.0313 kg/ha): 0.0
GALAP rating (GALAP (Galium); 0.0625 kg/ha): 0.0
GALAP rating (GALAP (Galium); 0.1250 kg/ha): 4.5
GALAP rating (GALAP (Galium); 0.2500 kg/ha): 8.5
GALAP rating (GALAP (Galium); 0.5000 kg/ha): 9.0
SETVI rating (SETVI (Foxtail, Green) [5]; 0.0156 kg/ha): 0.0
SETVI rating (SETVI (Foxtail, Green) [5]; 0.0313 kg/ha): 1.5
SETVI rating (SETVI (Foxtail, Green) [5]; 0.0625 kg/ha): 1.5
SETVI rating (SETVI (Foxtail, Green) [5]; 0.1250 kg/ha): 9.0
SETVI rating (SETVI (Foxtail, Green) [5]; 0.2500 kg/ha): 9.0
SETVI rating (SETVI (Foxtail, Green) [5]; 0.5000 kg/ha): 9.0
CYPIR herbicidal effect rating (CYPIR (Rice Flatsedge); 0.0313 kg/ha): 0.0
CYPIR herbicidal effect rating (CYPIR (Rice Flatsedge); 0.0625 kg/ha): 0.0
CYPIR herbicidal effect rating (CYPIR (Rice Flatsedge); 0.1250 kg/ha): 2.0
CYPIR herbicidal effect rating (CYPIR (Rice Flatsedge); 0.2500 kg/ha): 4.0
Herbicidal rating ECHORC [6, 8]: 3.0
Herbicidal rating ECHORC [6, 9]: 4.0
Herbicidal rating ECHORC [6, 10]: 5.0
Herbicidal rating ECHORC [6, 11]: 6.0
Herbicidal rating CYPSE (CYPSE (Flatsedge); [8]): 0.0
Herbicidal rating CYPSE (CYPSE (Flatsedge); [9]): 0.0
Herbicidal rating CYPSE (CYPSE (Flatsedge); [10]): 4.0
Herbicidal rating CYPSE (CYPSE (Flatsedge); [11]): 6.0
Herbicidal rating SAGPY [7, 8]: 4.0
Herbicidal rating SAGPY [7, 9]: 5.0
Herbicidal rating SAGPY [7, 10]: 9.0
Herbicidal rating SAGPY [7, 11]: 9.0

CCOC(=O)CN1C(=O)CO/C1=N/c1cc(-n2c(=O)cc(C(F)(F)F)n(C)c2=O)c(F)cc1Cl [Compound 22, Ethyl 2-{{2-chloro-5-[3,6-dihydro-3-methyl-2,6-dioxo-4-(trifluoromethyl)-1(2H)-pyrimidinyl]-4-fluorophenyl}imino}-4-oxo-3-oxazolidineacetate]
ABUTH herbicidal rating (ABUTH (Velvetleaf); rate 0.0158 kg/ha): 9.0
ABUTH herbicidal rating (ABUTH (Velvetleaf); rate 0.0315 kg/ha): 9.0
ABUTH herbicidal rating (ABUTH (Velvetleaf); rate 0.0630 kg/ha): 9.0
CHEAL herbicidal rating ([1]; rate 0.0158 kg/ha): 4.0
CHEAL herbicidal rating ([1]; rate 0.0315 kg/ha): 6.0
CHEAL herbicidal rating ([1]; rate 0.0630 kg/ha): 3.0
SETVI herbicidal rating (SETVI (Foxtail, Green) [2]; rate 0.0158 kg/ha): 3.0
SETVI herbicidal rating (SETVI (Foxtail, Green) [2]; rate 0.0315 kg/ha): 5.0
SETVI herbicidal rating (SETVI (Foxtail, Green) [2]; rate 0.0630 kg/ha): 7.0
GLXMAW herbicidal rating ([3]; rate 0.0158 kg/ha): 5.5
GLXMAW herbicidal rating ([3]; rate 0.0315 kg/ha): 6.5
GLXMAW herbicidal rating ([3]; rate 0.0630 kg/ha): 5.5
ORYSAT herbicidal rating (ORYSAT (Rice, Tebonnet); rate 0.0158 kg/ha): 2.5
ORYSAT herbicidal rating (ORYSAT (Rice, Tebonnet); rate 0.0315 kg/ha): 3.0
ORYSAT herbicidal rating (ORYSAT (Rice, Tebonnet); rate 0.0630 kg/ha): 4.5
TRZAWR herbicidal rating ([4]; rate 0.0158 kg/ha): 4.0
TRZAWR herbicidal rating ([4]; rate 0.0315 kg/ha): 3.5
TRZAWR herbicidal rating ([4]; rate 0.0630 kg/ha): 5.0
ZEAMX herbicidal rating (ZEAMX (Corn, Field); rate 0.0158 kg/ha): 7.0
ZEAMX herbicidal rating (ZEAMX (Corn, Field); rate 0.0315 kg/ha): 7.5
ZEAMX herbicidal rating (ZEAMX (Corn, Field); rate 0.0630 kg/ha): 7.5
AMBEL preemergence herbicidal rating (AMBEL (Ragweed, Common); rate 0.0156 kg/ha): 0.0
AMBEL preemergence herbicidal rating (AMBEL (Ragweed, Common); rate 0.0313 kg/ha): 5.0
AMBEL preemergence herbicidal rating (AMBEL (Ragweed, Common); rate 0.0625 kg/ha): 7.0
AMBEL preemergence herbicidal rating (AMBEL (Ragweed, Common); rate 0.1250 kg/ha): 9.0
AMBEL preemergence herbicidal rating (AMBEL (Ragweed, Common); rate 0.2500 kg/ha): 9.0
GALAP preemergence herbicidal rating (GALAP (Galium); rate 0.0156 kg/ha): 0.0
GALAP preemergence herbicidal rating (GALAP (Galium); rate 0.0313 kg/ha): 0.0
GALAP preemergence herbicidal rating (GALAP (Galium); rate 0.0625 kg/ha): 0.0
GALAP preemergence herbicidal rating (GALAP (Galium); rate 0.1250 kg/ha): 0.0
GALAP preemergence herbicidal rating (GALAP (Galium); rate 0.2500 kg/ha): 9.0
SETVI preemergence herbicidal rating (SETVI (Foxtail, Green) [5]; rate 0.0156 kg/ha): 0.0
SETVI preemergence herbicidal rating (SETVI (Foxtail, Green) [5]; rate 0.0313 kg/ha): 7.0
SETVI preemergence herbicidal rating (SETVI (Foxtail, Green) [5]; rate 0.0625 kg/ha): 9.0
SETVI preemergence herbicidal rating (SETVI (Foxtail, Green) [5]; rate 0.1250 kg/ha): 9.0
SETVI preemergence herbicidal rating (SETVI (Foxtail, Green) [5]; rate 0.2500 kg/ha): 9.0
Herbicidal rating CYPIR (CYPIR (Rice Flatsedge); 0.1160 kg/ha): 0.0
Herbicidal rating CYPIR (CYPIR (Rice Flatsedge); 0.2310 kg/ha): 0.0
Herbicidal rating CYPIR (CYPIR (Rice Flatsedge); 0.4630 kg/ha): 5.0
Herbicidal rating ECHORC [6, 12]: 6.0
Herbicidal rating ECHORC [6, 13]: 9.0
Herbicidal rating ECHORC [6, 14]: 9.0
Herbicidal rating CYPSE (CYPSE (Flatsedge); [12]): 4.0
Herbicidal rating CYPSE (CYPSE (Flatsedge); [13]): 4.0
Herbicidal rating CYPSE (CYPSE (Flatsedge); [14]): 4.0
Herbicidal rating SAGPY [7, 12]: 4.0
Herbicidal rating SAGPY [7, 13]: 4.0
Herbicidal rating SAGPY [7, 14]: 5.0
